Measured values from patent US10100285B2, “Ex vivo proliferation of epithelial cells” (PROPAGENIX INC., priority 2015, dated 2018).

Assays:
[1] = system: human bronchial epithelial cells (HBEC) and human foreskin keratinocytes (HFK); assay: Dome-like structure formation at high CaCl2; assay type: cell-based; settings: CaCl2 raised to 1.5 mM in KSFM+A+Y, 7 to 10 days
Experimental: Dome-like structures formed in keratinocyte and bronchial epithelial cell cultures in the presence of high concentration of CaCl2. Specifically, late passage human bronchial epithelial cells (HBEC) and late passage human foreskin keratinocytes (HFK) cultured in KSFM supplemented with 1 μM A 83-01 and 5 μM Y-27632 (KSFM+A+Y) at low CaCl2 (90 μM) were allowed to reach confluence in 6-well plates. The cells remained in the KSFM+A+Y conditions and the CaCl2 concentration was raised to 1.5 mM to induce differentiation of the epithelial cells.

[2] = system: human foreskin keratinocytes (HFK); assay: Tight junction formation, ZO-1 immunofluorescence; assay type: cell-based; settings: CaCl2 raised to 1.5 mM in KSFM+A+Y
Experimental: Specifically, late passage human foreskin keratinocytes (HFK) cultured in KSFM supplemented with 1 μM A83-01 and 5 μM Y-27632 (KSFM+A+Y) at low CaCl2 (90 μM) were allowed to reach confluence. The cells remained in the KSFM+A+Y conditions and the CaCl2 concentration was raised to 1.5 mM to induce differentiation.

[3] = system: bronchial epithelial cells; assay: Trans-epithelium electric resistance (TEER) of bronchial epithelial cells on […]; assay type: cell-based, human
Experimental: In a further investigation, effects of culture media calcium content on intercellular junctions was assessed for bronchial epithelial cells cultured in KSFM plus A83-01 and Y-27632. Intercellular junctions were assessed according to paracellular flow of ions as measured by trans-epithelium electric resistance (TEER). […] Bronchial epithelial cells were plated on porous membrane support ([…], Corning, 354474) and maintained for 7 days when the membrane was covered with culture medium (submerged phase, grayed box in FIG. 29, top panel). On day 8, the medium was removed from the apical side of the membrane, and the cells were exposed to air to induce further differentiation. Further, as shown in FIG. 29 (bottom panel), bronchial epithelial cells established increasing transmembrane electric resistance (TEER) over time in the presence of high concentration (1 mM) of CaCl2 in KSFM plus A 83-01 and Y-27632. Bronchial epithelial cells were plated on a porous membrane support ([…], Corning, 354474) and maintained for 24 days, with the membrane covered by culture medium for the duration of the culture. Trans-epithelium electric resistance (TEER) remained at a high level throughout the culture period.

[4] = system: human foreskin keratinocytes (HFK); assay: Epidermal-like structure in air-liquid-interface differentiation (H&E); assay type: cell-based; settings: 1.5 mM CaCl2 in KSFM+A+Y, day 14
Experimental: Keratinocytes formed an epidermal-like structure over time in air-liquid-interface differentiation, in the presence of high concentration (1.5 mM) of CaCl2 in KSFM plus A 83-01 and Y-27632. Specifically, human foreskin keratinocytes (HFK) previously cultured in KSFM supplemented with 1 μM A83-01 and 5 μM Y-27632 (KSFM+A+Y) at low CaCl2 (90 μM) were plated on a porous membrane support ([…], Corning, 354474) and maintained for 14 days. The cells were covered by culture medium (KSFM+A+Y and 1.5 mM of CaCl2) for the first day and exposed to air for the remaining days. At the end of experiment (i.e., on day 14), the culture was fixed in 4% paraformaldehyde, embedded in paraffin and sectioned for haematoxylin and eosin staining (H&E) to reveal its structure.

[5] = system: human bronchial epithelial cells; assay: Effect of culture media calcium content on cell behavior; assay type: cell-based; settings: 1 mM CaCl2 in KSFM plus A83-01 and Y-27632
Experimental: Effects of culture media calcium content on cell behavior were assessed for epithelial cells cultured in KSFM plus A83-01 and Y-27632. Human bronchial epithelial cells were grown KSFM (with 90 μM CaCl2) plus A83-01 and Y-27632. These cells dispersed throughout the culture vessel (FIG. 28, left panel), and few cells formed intercellular connections, even when they were in close proximity to each other. […] Cells in the center of the patches tended to pile up, and boundaries between individual cells generally were not discernable. In certain instances, abnormal elongations formed between clusters.

[6] = system: human foreskin keratinocytes (HFK); assay: TEER in air-liquid-interface differentiation of keratinocytes; assay type: cell-based; settings: 1.5 mM CaCl2 in KSFM+A+Y, 14 days
Experimental: Keratinocytes established increasing transmembrane electric resistance (TEER) over time in air-liquid-interface differentiation, in the presence of high concentration (1.5 mM) of CaCl2 in KSFM plus A 83-01 and Y-27632. Specifically, human foreskin keratinocytes (HFK) previously cultured in KSFM supplemented with 1 μM A83-01 and 5 μM Y-27632 (KSFM+A+Y) at low CaCl2 (90 μM) were plated on a porous membrane support ([…], Corning, 354474) and maintained for 14 days. The cells were covered by culture medium (KSFM+A+Y and 1.5 mM of CaCl2) for the first day (submerged phase, grayed box in FIG. 34) and exposed to air for the remaining days.

[7] = system: CD4+ and CD8+ T cells (human PBMCs); assay: T cell proliferation, Cell Trace CFSE stained PBMCs with PHA co-incubated with hAECs; assay type: cell-based; settings: 48 hour preincubation of hAECs with interferon γ 100 ng/ml
From the text: Human Peripheral Blood Mononuclear Cells (PBMCs) were isolated and stained with Cell Trace CFSE (Thermo Fisher Scientific). Cell Trace CFSE is a cell permeable amine reactive fluorescent dye that non-specifically labels intracellular proteins. Through subsequent cell divisions each daughter cell receives approximately half of the label allowing for determination of the intensity of fluorescence by flow cytometry and correlation to the number of cell divisions. Cell Trace CFSE stained PBMCs were added to ˜80% confluent monolayers of hAECs from Donor 1 (P4) and Donor 2 (P4) expanded in KSFM A+Y. Upon addition of the stained PMBCs the media was changed to RPMI media with 10% FBS and 5 μg/ml phytohaemagglutinin (PHA). PHA is a potent mitotic agent used to activate and stimulate proliferation of lymphocytes. The expanded hAECs were used directly from growth conditions or after a 48 hour preincubation with Interferon γ (100 ng/ml; Thermo Fisher Scientific). This treatment can increase the immunosuppressive effect of hAECs. […] The degree of inhibition of proliferation was calculated by determining the number of cells that proliferated in the presence of hAECs relative to the number of cells that proliferated when exposed to PHA treatment alone (FIG. 45D). […]

hAECs = assay: Effect of interferon γ on immunomodulatory gene expression in hAECs (qRT-PCR); assay type: cell-based, human; settings: 100 ng/mL, 48 hours
Experimental: In certain instances, treatment of hAECs with interferon γ (INFγ) leads to an upregulation of genes involved in immune suppression. However, cultured hAECs typically lose their functional phenotype (see e.g., cells tested at passage 5 in Pratama et al. 2011 PLoS ONE 6(11): e26136). In this example, hAECs isolated from two different donors (Donor 1 and Donor 2), were tested for their response to INFγ both in KSFM A+Y and after removal from growth conditions and placement into standard hAEC media (DMEM:F12 10% FBS). Cells from both donors grown in KSFM A+Y at passage 4 at ˜80% confluence were either kept in KSFM A+Y, changed to KSFM A+Y+100 ng/mL INFγ, or changed to DMEM:F12+/−100 ng/mL INFγ. The cells were left for an additional 48 hours in each condition. qRT-PCR was used to examine expression levels of HLA-G, Indoleamine 2,3-dioxygenase (IDO), and Programmed Death Ligand 1 (PD-L1) (see FIGS. 46A-46D).
HLA-G can have a wide variety of immunomodulatory effects on numerous immune cells. Expression of HLA-G is generally considered a prominent feature of hAECs, and often is lost during expansion in culture. […] IDO is the first and rate-limiting enzyme of tryptophan catabolism through the kynurenine pathway, thus causing depletion of tryptophan which can inhibit T cell proliferation. […] PD-L1 may play a major role in immune suppression, inhibiting the proliferation and inducing apoptosis of T cells.

**Q.** `[Ca+2].[Cl-].[Cl-]` [CaCl2] was tested. Which dome-like structure formation [1] did it give?
**A.** Many dome-like structures were formed

**Q.** What about the “tight junction formation (ZO-1)” value [2] of the same molecule?
**A.** Tight junction formation was observed

**Q.** And the “intercellular junctions (TEER)” value ([3]; high concentration (1 mM) in KSFM plus A 83-01 and Y-27632)?
**A.** established tight intercellular junctions

**Q.** And the “intercellular junctions (TEER)” value ([3]; low concentration (90 μM) in KSFM plus A 83-01 and Y-27632)?
**A.** failed to establish tight intercellular junctions

**Q.** What about the epidermal-like structure formation [4] of the same molecule?
**A.** differentiated into multi-layer structures

**Q.** And the cell behavior [5]?
**A.** aggregate into tight clusters

**Q.** What about the “trans-epithelium electric resistance (TEER)” value [6] of the same molecule?
**A.** reached very high levels

B1: interferon γ: Interferon γ (100 ng/ml; Thermo Fisher Scientific) (protein, UniProt P01579 24-161, looked up)
Interferon gamma: QDPYVKEAENLKKYFNAGHSDVADNGTLFLGILKNWKEESDRKIMQSQIVSFYFKLFKNFKDDQSIQKSVETIKEDMNVKFFNSNKKKRDDFEKLTNYSVTDLNVQRKAIHELIQVMAELSPAAKTGKRKRSQMLFRG
**Q.** How did the “inhibition of T cell proliferation by hAECs” value [7] turn out when B1 was run?
**A.** increased

**Q.** And the IDO expression (hAECs)?
**A.** increases dramatically

**Q.** What about the PD-L1 expression (hAECs) of the same molecule?
**A.** dramatic increase in expression

**Q.** And the HLA-G expression (hAECs; after moving cells to standard media (DMEM:F12))?
**A.** greatly increased
